Assay: Dynamic light scattering (DLS) particle size
Format: physicochemical
Conditions: in chloroform; reverse micelles at w=11.9
Method: Samples for dynamic light scattering are prepared by dissolving 1 mg of sample into 4 mL of solvent. The solution was then filtered through a 0.45 μm syringe filter into quartz cuvette with a path length of 2 cm. The measurements are obtained on a Malvern Zetasizer Nano.
Solubility properties dictate that gluc anions reside in the aqueous polar region of the reverse micelle and remain associated with CDA through the pairing of carboxylate with the cationic […] head group of CDA.

With “Acetamido Cetyl Dimethyl Ammonium Glucuronate [CDA-gluc]” as the substance, how does the “average diameter (DLS)” value read?
Its value is 14 nm.
